In patent US11453632B2, “1-phenyl-2-phenylethane derivative” (KAO CORPORATION, priority 2018, dated 2022):

Key:
ERα LBD = target: T1, ERα LBD (Homo sapiens, UniProt P03372); assay: Ability to bind to ERα: pBIND-ERα LBD / GAL4 luciferase reporter in HEK293 cells; assay type: cell-based; set-up: key: firefly luciferase / Renilla luciferase luminescence ratio; conditions: negative control 0.00847035
T1 construct: host or cells: HEK293
T1 sequence (P03372 311-547 limits assumed): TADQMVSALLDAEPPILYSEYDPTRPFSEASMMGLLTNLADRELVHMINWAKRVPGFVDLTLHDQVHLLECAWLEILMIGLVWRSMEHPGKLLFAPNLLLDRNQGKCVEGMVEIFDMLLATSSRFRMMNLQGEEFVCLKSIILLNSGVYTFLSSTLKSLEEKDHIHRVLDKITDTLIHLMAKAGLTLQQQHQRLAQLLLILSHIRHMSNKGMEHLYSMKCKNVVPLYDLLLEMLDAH
Description: (§1) A human kidney-derived cell line HEK293 was cultured (37° C., 5% CO2) in Dulbecco's modified Eagle medium (hereinafter, abbreviated to DMEM) containing 10% (v/v) fetal bovine serum (FBS) and penicillin/streptomycin.
(§2) 2) Measurement of Binding Activity Against ERs
(§3) Specifically, HEK293 cells were inoculated at a cell density of 4.0×10^4 cells/well to a 96-well plate. After 12 hours therefrom, the medium was replaced with a culture solution (DMEM containing 5% (v/v) charcoal-treated serum). The cells were cotransfected with pBIND-ERα for the expression of ERα LBD or pBIND-ERβ for the expression of ERβ LBD (Promega Corp.) and pGL4.35[luc2P/9XGAL4UAS/Hygro](Promega Corp.) using Lipofectamine 2000 (Invitrogen Corp.) according to the protocol attached to the product. 24 hours after transfection, the medium was replaced with a culture solution containing a test sample, followed by culture for another 24 hours. The activity measurement of firefly luciferase (index for the ligand binding activity of ER) and Renilla reniformis luciferase (index for the transfection efficiency of the plasmids) was carried out using Dual-Glo™ Luciferase Assay System (Promega Corp.) according to the attached protocol. The luminescence intensity of the firefly luciferase was divided by the luminescence intensity of the Renilla reniformis luciferase to calculate a relative light unit (RLU).

ERβ LBD = target: T2, ERβ LBD (Homo sapiens, UniProt Q92731); assay: Ability to bind to ERβ: pBIND-ERβ LBD / GAL4 luciferase reporter in HEK293 cells; assay type: cell-based; set-up: key: RLU = firefly luminescence / Renilla luminescence; conditions: negative control 0.0118997
T2 construct: host or cells: HEK293
T2 sequence (Q92731 264-498 limits assumed): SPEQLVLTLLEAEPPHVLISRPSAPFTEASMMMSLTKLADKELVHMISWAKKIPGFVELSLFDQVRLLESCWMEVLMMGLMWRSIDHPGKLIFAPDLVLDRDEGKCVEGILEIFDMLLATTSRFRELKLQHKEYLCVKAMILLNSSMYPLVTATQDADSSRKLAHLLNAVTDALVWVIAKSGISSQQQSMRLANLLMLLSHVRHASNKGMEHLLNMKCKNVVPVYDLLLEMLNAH
Description: This evaluation system is a system exploiting difference in the sequence of the ligand binding domain (LBD) between ERα and ERβ (J Endocrinol 163: 379-383 (1999)), and enables selective activation of ERβ to be evaluated by determining the binding of a ligand to LBD and the activation of ER.
as §1, §2
as §3, with “This measurement was carried out according to the method described in JP-B-5990058. Specifically,” for “Specifically,”

ERα = target: T3, ERα (Homo sapiens, UniProt P03372); assay: Ability to activate transcription mediated by ERα (pcDNA3-ERα, pERE luciferase, HEK293 cells); assay type: cell-based; conditions: negative control 0.004573
T3 construct: host or cells: HEK293
T3 sequence (P03372 1-595): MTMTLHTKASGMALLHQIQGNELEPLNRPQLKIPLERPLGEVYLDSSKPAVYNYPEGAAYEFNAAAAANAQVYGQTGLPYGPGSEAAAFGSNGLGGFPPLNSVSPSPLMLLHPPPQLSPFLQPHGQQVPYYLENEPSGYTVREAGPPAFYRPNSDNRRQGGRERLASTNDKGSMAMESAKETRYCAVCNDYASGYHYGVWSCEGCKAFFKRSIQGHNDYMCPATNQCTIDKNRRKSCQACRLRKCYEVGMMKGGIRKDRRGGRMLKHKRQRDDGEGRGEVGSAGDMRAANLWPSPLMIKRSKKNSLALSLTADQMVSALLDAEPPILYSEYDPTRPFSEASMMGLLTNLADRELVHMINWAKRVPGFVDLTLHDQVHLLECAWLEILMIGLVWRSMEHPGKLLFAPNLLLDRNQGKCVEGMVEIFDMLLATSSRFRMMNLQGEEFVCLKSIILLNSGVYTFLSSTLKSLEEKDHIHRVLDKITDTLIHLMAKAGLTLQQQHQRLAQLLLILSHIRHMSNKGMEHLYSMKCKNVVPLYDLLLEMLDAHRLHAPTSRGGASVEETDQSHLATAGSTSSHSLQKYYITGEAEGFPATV
Description: (§4) 1) Experimental Method (Measurement of Transcriptional Activity Mediated by ERs)
(§5) HEK293 cells were inoculated at a cell density of 4.0×10^4 cells/well to a 96-well plate. After 12 hours therefrom, the medium was replaced with a culture solution (DMEM containing 5% (v/v) charcoal-treated serum). The cells were cotransfected with pcDNA3-ERα or pcDNA3-ERβ (Promega Corp.) and pERE and pRL-CMV (Promega Corp.) using Lipofectamine 2000 (Invitrogen Corp.) according to the protocol attached to the product. 24 hours after transfection, the medium was replaced with a culture medium containing a test sample, followed by culture for another 24 hours. Then, luciferase activity was measured using Dual-Glo™ Luciferase Assay System (Promega Corp.) according to the attached protocol. The luminescence intensity of firefly luciferase (index for the ability to activate transcription mediated by ERE) was divided by the luminescence intensity of Renilla reniformis luciferase (index for the transfection efficiency of the plasmids) to calculate a relative light unit (RLU).

ERβ = target: T4, ERβ (Homo sapiens, UniProt Q92731); assay: Ability to activate transcription mediated by ERβ (pcDNA3-ERβ, pERE luciferase, HEK293 cells); assay type: cell-based; conditions: negative control 0.001475
T4 construct: host or cells: HEK293
T4 sequence (Q92731 whole entry): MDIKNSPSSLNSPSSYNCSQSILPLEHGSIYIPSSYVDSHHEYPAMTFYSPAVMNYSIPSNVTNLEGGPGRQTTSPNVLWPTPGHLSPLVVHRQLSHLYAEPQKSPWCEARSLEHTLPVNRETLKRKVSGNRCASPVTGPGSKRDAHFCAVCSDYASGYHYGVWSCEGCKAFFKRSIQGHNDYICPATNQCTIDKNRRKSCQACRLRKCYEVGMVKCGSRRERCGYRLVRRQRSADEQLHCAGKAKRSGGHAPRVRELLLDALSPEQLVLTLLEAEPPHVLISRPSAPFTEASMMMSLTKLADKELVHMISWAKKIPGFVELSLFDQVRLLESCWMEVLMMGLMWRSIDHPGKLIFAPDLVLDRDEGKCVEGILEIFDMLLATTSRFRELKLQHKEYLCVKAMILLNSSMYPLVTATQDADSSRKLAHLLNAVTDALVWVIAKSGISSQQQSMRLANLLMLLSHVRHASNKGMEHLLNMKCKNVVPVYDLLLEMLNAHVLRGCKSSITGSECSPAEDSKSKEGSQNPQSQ
Description: as §4, §5

[1] = tested on: uterus of ovariectomized rat; assay: Uterus weight in ovariectomized (OVX) rat; assay type: in vivo; conditions: 4 μg/kg/day subcutaneous, vs negative solvent group
Description: 8-week-old female Crl:CD (SD) rats were obtained from Charles River Laboratories Japan, Inc. and individually identified by the ear punching method on the receipt date. Then, an acclimatization period was established for 1 week. The animals were raised in a rearing room under a set environment involving a temperature of 22±3° C., a humidity of 50±20%, air ventilation from 13 to 17 times/hour, and a lighting time from 8:00 to 20:00. During the acclimatization period, the rats were allowed to freely ingest solid feed CRF-1 (Oriental Yeast Co., Ltd.). Since the feeding with CRF-1, the rats were allowed to freely ingest customized feed AIN-93G (Oriental Yeast Co., Ltd.) free from components derived from soybeans.
On the end date of acclimatization and the following day, the flank cavity was opened under isoflurane anesthesia to harvest the right and left ovaries including fallopian tubes. Other non-OVX rats were subjected to only opening and suture (sham surgery). Immediately thereafter, an antibiotic was subcutaneously administered at a dose of 100 μl/animal. After the surgery, the sham surgery or OVX animals were given customized feed and raised for approximately 1 week.
From 1.5 hours before a shift from the light phase to the dark phase (18:30), a negative solvent (DMSO) or a test substance was subcutaneously administered at a dose of 0.5 ml/kg to the back of the neck according to Table 3 described below using a syringe and an injection needle.
After the completion of all procedures of measurement and analysis, the rats were euthanized by blood letting under isoflurane anesthesia, and the uterus was harvested. Wet weights were measured.
Skin temperatures differed largely among individuals, and the Smirnov-Grubbs test was conducted in order to exclude outliers beforehand. Results of measuring tail skin temperatures and results of measuring uterus weights were statistically analyzed by testing using the Dunnett's test.

Compound | relative light unit (RLU), ligand binding activity ERα (ERα LBD; 0.01 nM) | relative light unit (RLU), ligand binding activity ERα (ERα LBD; 0.1 nM) | relative light unit (RLU), ligand binding activity ERα (ERα LBD; 1 nM) | relative light unit (RLU), ligand binding activity ERα (ERα LBD; 10 nM) | relative light unit (RLU), ligand binding activity ERα (ERα LBD; 100 nM) | relative light unit (RLU), ligand binding activity ERβ (ERβ LBD; 0.01 nM) | relative light unit (RLU), ligand binding activity ERβ (ERβ LBD; 0.1 nM) | relative light unit (RLU), ligand binding activity ERβ (ERβ LBD; 1 nM) | relative light unit (RLU), ligand binding activity ERβ (ERβ LBD; 10 nM) | relative light unit (RLU), ligand binding activity ERβ (ERβ LBD; 100 nM) | relative light unit (RLU), transcription activation ERα (ERα; 0.1 pM) | relative light unit (RLU), transcription activation ERα (ERα; 1 pM) | relative light unit (RLU), transcription activation ERα (ERα; 10 pM) | relative light unit (RLU), transcription activation ERα (ERα; 100 pM) | relative light unit (RLU), transcription activation ERα (ERα; 1000 pM) | relative light unit (RLU), transcription activation ERα (ERα; 10000 pM) | relative light unit (RLU), transcription activation ERβ (ERβ; 0.01 pM) | relative light unit (RLU), transcription activation ERβ (ERβ; 0.1 pM) | relative light unit (RLU), transcription activation ERβ (ERβ; 1 pM) | relative light unit (RLU), transcription activation ERβ (ERβ; 10 pM) | also measured
4-(4,4-difluoro-2-(4-hydroxyphenyl)but-3-en-1-yl)-3,5 [Compound 18-F] | 0.03608 | 0.1312 | 1.177 | 2.968 | 3.391 | 0.6452 | 2.101 | 2.317 | 2.025 | 2.304 | 0.01194 | 0.01337 | 0.01971 | 0.04067 | 0.06395 | 0.06152 | 0.003231 | 0.00681 | 0.01281 | 0.03479 | relative light unit (RLU), transcription activation ERβ (ERβ; 100 pM): 0.03642; relative light unit (RLU), transcription activation ERβ (ERβ; 1000 pM): 0.03659; relative light unit (RLU), transcription activation ERβ (ERβ; 10000 pM): 0.03706
Oc1ccc(CC(C=C(F)F)c2ccc(O)cc2)cc1 (stereo not drawn) [Compound 7, 4,4′-(4,4-difluorobut-3-ene-1,2-diyl)diphenol] | 0.02799 | 0.0373 | 0.02919 | 0.06191 | 1.588 | 0.06046 | 0.9104 | 1.877 | 2.074 | 2.408 | 0.006825 | 0.008059 | 0.008285 | 0.01621 | 0.04026 | 0.04776 | 0.002068 | 0.002153 | 0.00383 | 0.01191 | relative light unit (RLU), transcription activation ERβ (ERβ; 100 pM): 0.02336; relative light unit (RLU), transcription activation ERβ (ERβ; 1000 pM): 0.03253; relative light unit (RLU), transcription activation ERβ (ERβ; 10000 pM): 0.03471
Oc1ccc(C(C=C(Cl)Cl)Cc2c(F)cc(O)cc2F)cc1 (stereo not drawn) [Compound 18-Cl, 4-(4,4-dichloro-2-(4-hydroxyphenyl)but-3-en-1-yl)-3,5-difluorophenol] | 0.0398 | 0.04255 | 0.122 | 2.2626 | 3.229 | 0.07422 | 0.4259 | 1.819 | 1.997 | 2.261 |  |  |  |  |  |  |  |  |  |  | 
C[C@]12CC[C@@H]3c4ccc(O)cc4CC[C@H]3[C@@H]1CC[C@@H]2O [E2, estradiol, reference compound] |  |  |  |  |  |  |  |  |  |  |  |  |  |  |  |  |  |  |  |  | uterus wet weight (FIG. 6) [1]: significantly increased
